Data taken from ChEMBL document CHEMBL3044874, “Synthesis and characterization of some heterocyclic schiff bases: potential anticonvulsant agents” (Med Chem Res, 2011).
Active and inactive are the calls of the source. No cut-off for these calls is given here.

Experiments:
Mus musculus [1] = assay: Neurotoxicity against Mus musculus Swiss albino (mouse) at 300 mg/kg, ip measured at 0.5 hr by rota rod test; format: toxicity, organism-based; set-up: dose 300 mg/kg, route intraperitoneal; settings: in vivo
[2] = Neurotoxicity against ip dosed Mus musculus Swiss albino (mouse) by rota rod test; format: toxicity, organism-based; settings: in vivo
Mus musculus [3] = assay: Anticonvulsant activity in ip dosed Mus musculus Swiss albino (mouse) assessed as protection against pentylenetetrazole-induced seizure; format: functional
Mus musculus [4] = assay: Anticonvulsant activity in ip dosed Mus musculus Swiss albino (mouse) assessed as protection against maximal electroshock-induced seizure at 0.5 hr; format: functional; settings: read-out: MED
Mus musculus [5] = assay: Anticonvulsant activity in Mus musculus Swiss albino (mouse) assessed as protection against maximal electroshock-induced seizure at 300 mg/kg, ip; format: functional, organism-based; set-up: dose 300 mg/kg
Mus musculus [6] = assay: Neurotoxicity against Mus musculus Swiss albino (mouse) at 300 mg/kg, ip measured at 4 hr by rota rod test; format: toxicity, organism-based; set-up: dose 300 mg/kg, route intraperitoneal; settings: in vivo
Mus musculus [7] = assay: Anticonvulsant activity in Mus musculus Swiss albino (mouse) assessed as protection against strychnine-induced seizure at 300 mg/kg, ip measured at 0.5 hr; format: functional, organism-based; set-up: dose 300 mg/kg
Mus musculus [8] = assay: Anticonvulsant activity in ip dosed Mus musculus Swiss albino (mouse) assessed as protection against pentylenetetrazole-induced seizure at 4 hr; format: functional; settings: read-out: MED
Mus musculus [9] = assay: Anticonvulsant activity in Mus musculus Swiss albino (mouse) assessed as protection against strychnine-induced seizure at 300 mg/kg, ip measured at 4 hr; format: functional, organism-based; set-up: dose 300 mg/kg
Mus musculus [10] = assay: Anticonvulsant activity in Mus musculus Swiss albino (mouse) assessed as protection against maximal electroshock-induced seizure at 300 mg/kg, ip measured at 4 hr; format: functional, organism-based; set-up: dose 300 mg/kg
[11] = Protection index, ratio TD50 for neurotoxicity to ED50 for protection against maximal electroshock-induced seizure in Mus musculus Swiss albino (mouse); format: toxicity, organism-based; settings: in vivo, read-out: Ratio TD50/ED50
Mus musculus [12] = assay: Anticonvulsant activity in ip dosed Mus musculus Swiss albino (mouse) assessed as protection against pentylenetetrazole-induced seizure at 0.5 hr; format: functional; settings: read-out: MED
Mus musculus [13] = assay: Anticonvulsant activity in Mus musculus Swiss albino (mouse) assessed as protection against strychnine-induced seizure at 300 mg/kg, ip; format: functional, organism-based; set-up: dose 300 mg/kg
Mus musculus [14] = assay: Anticonvulsant activity in ip dosed Mus musculus Swiss albino (mouse) assessed as protection against strychnine-induced seizure at 0.5 hr; format: functional; settings: read-out: MED
Mus musculus [15] = assay: Neurotoxicity against ip dosed Mus musculus Swiss albino (mouse) at 0.5 hr by rota rod test; format: toxicity, organism-based; settings: in vivo
Mus musculus [16] = assay: Anticonvulsant activity in ip dosed Mus musculus Swiss albino (mouse) assessed as protection against strychnine-induced seizure at 4 hr; format: functional; settings: read-out: MED
Mus musculus [17] = assay: Neurotoxicity against ip dosed Mus musculus Swiss albino (mouse) at 4 hr by rota rod test; format: toxicity, organism-based; settings: in vivo
Mus musculus [18] = assay: Anticonvulsant activity in Mus musculus Swiss albino (mouse) assessed as protection against maximal electroshock-induced seizure at 300 mg/kg, ip measured at 0.5 hr; format: functional, organism-based; set-up: dose 300 mg/kg
Mus musculus [19] = assay: Anticonvulsant activity in ip dosed Mus musculus Swiss albino (mouse) assessed as protection against maximal electroshock-induced seizure at 4 hr; format: functional; settings: read-out: MED
Rattus norvegicus [20] = assay: Anticonvulsant activity in Rattus norvegicus Wistar (rat) assessed as protection against maximal electroshock-induced seizure at 30 mg/kg, po measured at 0.5 hr; format: functional, organism-based; set-up: dose 30 mg/kg
Rattus norvegicus [21] = assay: Anticonvulsant activity in Rattus norvegicus Wistar (rat) assessed as protection against maximal electroshock-induced seizure at 30 mg/kg, po measured at 1 hr; format: functional, organism-based; set-up: dose 30 mg/kg
Mus musculus [22] = assay: Anticonvulsant activity in ip dosed Mus musculus Swiss albino (mouse) assessed as protection against strychnine-induced seizure; format: functional
Rattus norvegicus [23] = assay: Anticonvulsant activity in Rattus norvegicus Wistar (rat) assessed as protection against maximal electroshock-induced seizure at 30 mg/kg, po measured at 4 hr; format: functional, organism-based; set-up: dose 30 mg/kg
Rattus norvegicus [24] = assay: Anticonvulsant activity in Rattus norvegicus Wistar (rat) assessed as protection against maximal electroshock-induced seizure at 30 mg/kg, po measured at 0.25 hr; format: functional, organism-based; set-up: dose 30 mg/kg
Mus musculus [25] = assay: Anticonvulsant activity in Mus musculus Swiss albino (mouse) assessed as protection against pentylenetetrazole-induced seizure at 300 mg/kg, ip; format: functional, organism-based; set-up: dose 300 mg/kg
Rattus norvegicus [26] = assay: Anticonvulsant activity in Rattus norvegicus Wistar (rat) assessed as protection against maximal electroshock-induced seizure at 30 mg/kg, po measured at 2 hr; format: functional, organism-based; set-up: dose 30 mg/kg
Mus musculus [27] = assay: Anticonvulsant activity in ip dosed Mus musculus Swiss albino (mouse) assessed as protection against maximal electroshock-induced seizure; format: functional

Compound	Activity (Mus musculus [1])	TD50 [2] [mg/kg]	ED50 (Mus musculus [3]) [mg/kg]	minimal effective dose (Mus musculus [4]) [mg/kg]	Activity (Mus musculus [5])	Activity (Mus musculus [6])	Activity (Mus musculus [7])	minimal effective dose (Mus musculus [8]) [mg/kg]	Activity (Mus musculus [9])	Activity (Mus musculus [10])	selectivity ratio [11]	minimal effective dose (Mus musculus [12]) [mg/kg]	Activity (Mus musculus [13])	minimal effective dose (Mus musculus [14]) [mg/kg]	MTC (Mus musculus [15]) [mg/kg]	minimal effective dose (Mus musculus [16]) [mg/kg]	Activity (Mus musculus [18])	other results
COc1ccc(/C=N/Cc2cccnc2)cc1OC	Non-toxic	> 500	11.7	300	inactive	Non-toxic	inactive	30	inactive	inactive	> 10	30	inactive					
C(=N\Cc1cccnc1)/c1c[nH]c2ccccc12		> 500	6.47	300	inactive			30		inactive	> 10	30	inactive	300	100	100		MTC (Mus musculus [17]): 100 mg/kg
c1cncc(CN=C2CCCCC2)c1	Non-toxic	> 500	14.2		inactive	Non-toxic	inactive	30	inactive	inactive	> 10	30	inactive				inactive	
CC12CCC(C/C1=N/Cc1cccnc1)C2(C)C (stereo not given)		176	32.2		inactive	Non-toxic	inactive	100	inactive	inactive	5.45	30	inactive		300		inactive	
O=[N+]([O-])c1ccc(/C=N/Cc2cccnc2)cc1	Non-toxic	> 500		100		Non-toxic		300			> 10	100		30		100		minimal effective dose (Mus musculus [19]): 100 mg/kg; Activity (Rattus norvegicus [20]): inactive; Activity (Rattus norvegicus [21]): inactive; ED50 (Mus musculus [22]): 22.2 mg/kg; Activity (Rattus norvegicus [23]): inactive; Activity (Rattus norvegicus [24]): inactive; Activity (Mus musculus [25]): inactive; Activity (Rattus norvegicus [26]): inactive; ED50 (Mus musculus [27]): 61.4 mg/kg
